The values below come from patent publication US20240190890A1, “MK2 INHIBITORS AND USES THEREOF” (Bristol-Myers Squibb Company, priority 2022, published 2024).

Structures are written as SMILES.

Chain of p38a activated, mitogen-activated protein kinase-activated protein kinase 2 (MAPKAP-K2 or MK2) enzyme (P49137 whole entry): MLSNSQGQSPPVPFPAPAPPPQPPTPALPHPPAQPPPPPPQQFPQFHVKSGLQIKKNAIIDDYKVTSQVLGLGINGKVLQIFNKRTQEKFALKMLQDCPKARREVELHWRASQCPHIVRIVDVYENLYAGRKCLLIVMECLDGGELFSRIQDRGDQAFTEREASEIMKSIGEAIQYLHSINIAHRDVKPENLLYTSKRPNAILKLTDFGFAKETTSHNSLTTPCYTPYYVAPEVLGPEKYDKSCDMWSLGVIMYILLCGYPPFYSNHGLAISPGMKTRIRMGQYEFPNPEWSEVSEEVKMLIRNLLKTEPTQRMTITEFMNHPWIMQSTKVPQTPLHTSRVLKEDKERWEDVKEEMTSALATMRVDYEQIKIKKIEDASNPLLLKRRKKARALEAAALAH

The experiment addresses p38a activated, mitogen-activated protein kinase-activated protein kinase 2 (MAPKAP-K2 or MK2) enzyme (Homo sapiens (Human), UniProt P49137). Nature of the experiment: MK2 Omnia continuous-read kinase assay for compound potency. Format: biochemical. Conditions: [MK-2]=0.4 nM, [ATP]=10 μM, [ST3-Sox]=10 μM; room temperature. The method in brief: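 p38a-activated MK2 (0.4 nM) with 10 μM ATP (apparent Km) and 10 μM S/T3-Sox peptide in Tris pH 7.5 buffer with MgCl2, EGTA and DTT. Fluorescence (ex360/em485) read continuously for 120 min at room temperature. IC50 from initial linear slopes; apparent kinact/KI from kobs of exponential progress-curve fits.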
Consider `C=Cc1cc(-c2ccc3c(ccc4sc5c(c43)NC[C@@H](C)NC5=O)n2)c(CN2CCC(C(F)(F)F)CC2)cn1` [Example I-212, (R)-10-methyl-3-(5-((4-(trifluoromethyl)piperidin-1-yl)methyl)-2-vinylpyridin-4-yl)-9,10,11,12-tetrahydro-8H-[1,4]diazepino[5′,6′:4,5]thieno[3,2-f]quinolin-8-one], for which the IC50 was 0.092 µM.
For `C=Cc1cc(-c2ccc3c(ccc4sc5c(c43)NC[C@@H](C)NC5=O)n2)c(CN2C[C@@H](C)O[C@@H](C)C2)cn1` [Example I-213, (R)-3-(5-(((2S,6R)-2,6-dimethylmorpholino)methyl)-2-vinylpyridin-4-yl)-10-methyl-9,10,11,12-tetrahydro-8H-[1,4]diazepino[5′,6′:4,5]thieno[3,2-f]quinolin-8-one], the IC50 worked out at 0.103 µM.
Next, `C=Cc1ncnn1-c1ccc2c(ccc3sc4c(c32)NC[C@@H](C)NC4=O)n1` [Example I-214, (R)-10-methyl-3-(5-vinyl-1H-1,2,4-triazol-1-yl)-9,10,11,12-tetrahydro-8H-[1,4]diazepino[5′,6′:4,5]thieno[3,2-f]quinolin-8-one]: 0.002 µM; `C=Cc1nccc(-c2ccc3c(ccc4sc5c(c43)NC[C@@H](C)NC5=O)n2)c1F` [Example I-217, (R)-3-(3-fluoro-2-vinylpyridin-4-yl)-10-methyl-9,10,11,12-tetrahydro-8H-[1,4]diazepino[5′,6′:4,5]thieno[3,2-f]quinolin-8-one]: 0.078 µM; `C#Cc1nccc(-c2ccc3c(ccc4sc5c(c43)NC[C@@H](C)NC5=O)n2)c1F` [Example I-218, (R)-3-(2-ethynyl-3-fluoropyridin-4-yl)-10-methyl-9,10,11,12-tetrahydro-8H-[1,4]diazepino[5′,6′:4,5]thieno[3,2-f]quinolin-8-one]: 0.079 µM.
Next, `C=Cc1nccc(-c2ccc3c(ccc4sc5c(c43)NC[C@@H](C)NC5=O)n2)c1C` [Example I-219, (R)-10-methyl-3-(3-methyl-2-vinylpyridin-4-yl)-9,10,11,12-tetrahydro-8H-[1,4]diazepino[5′,6′:4,5]thieno[3,2-f]quinolin-8-one]: 0.142 µM; `C#Cc1nccc(-c2ccc3c(ccc4sc5c(c43)NC[C@@H](C)NC5=O)n2)c1C` [Example I-220, (R)-3-(2-ethynyl-3-methylpyridin-4-yl)-10-methyl-9,10,11,12-tetrahydro-8H-[1,4]diazepino[5′,6′:4,5]thieno[3,2-f]quinolin-8-one]: 0.177 µM.
Next, `C[C@@H]1CNc2c(sc3ccc4nc(-c5ccnc(Cl)c5F)ccc4c23)C(=O)N1` [Example I-221, (R)-3-(2-chloro-3-fluoropyridin-4-yl)-10-methyl-9,10,11,12-tetrahydro-8H-[1,4]diazepino[5′,6′:4,5]thieno[3,2-f]quinolin-8-one]: 0.212 µM; `C=Cc1nnc(C)n1-c1ccc2c(ccc3sc4c(c32)NC[C@@H](C)NC4=O)n1` [Example I-223, (R)-10-methyl-3-(3-methyl-5-vinyl-4H-1,2,4-triazol-4-yl)-9,10,11,12-tetrahydro-8H-[1,4]diazepino[5′,6′:4,5]thieno[3,2-f]quinolin-8-one]: 1 µM.
Take `C=Cc1nc(C)nn1-c1ccc2c(ccc3sc4c(c32)NC[C@@H](C)NC4=O)n1` [Example I-224, (R)-10-methyl-3-(3-methyl-5-vinyl-1H-1,2,4-triazol-1-yl)-9,10,11,12-tetrahydro-8H-[1,4]diazepino[5′,6′:4,5]thieno[3,2-f]quinolin-8-one]: the half-maximal inhibitory concentration (IC50) stood at 0.002 µM.
With `C=C(c1cncc(-c2ccc3c(ccc4sc5c(c43)NC[C@@H](C)NC5=O)n2)n1)C(F)(F)F` [Example I-225, (R)-10-methyl-3-(6-(3,3,3-trifluoroprop-1-en-2-yl)pyrazin-2-yl)-9,10,11,12-tetrahydro-8H-[1,4]diazepino[5′,6′:4,5]thieno[3,2-f]quinolin-8-one], the IC50 worked out at 0.019 µM.
Next, `C=Cc1nc(C(F)(F)F)nn1-c1ccc2c(ccc3sc4c(c32)NC[C@@H](C)NC4=O)n1` [Example I-226, (R)-10-methyl-3-(3-(trifluoromethyl)-5-vinyl-1H-1,2,4-triazol-1-yl)-9,10,11,12-tetrahydro-8H-[1,4]diazepino[5′,6′:4,5]thieno[3,2-f]quinolin-8-one]: 0.007 µM; `C=Cc1noc(C)c1-c1ccc2c(ccc3sc4c(c32)NC[C@@H](C)NC4=O)n1` [Example I-227, (R)-10-methyl-3-(5-methyl-3-vinylisoxazol-4-yl)-9,10,11,12-tetrahydro-8H-[1,4]diazepino[5′,6′:4,5]thieno[3,2-f]quinolin-8-one]: 0.418 µM.
The figure for `C=Cc1nscc1-c1ccc2c(ccc3sc4c(c32)NC[C@@H](C)NC4=O)n1` [Example I-228, (R)-10-methyl-3-(3-vinylisothiazol-4-yl)-9,10,11,12-tetrahydro-8H-[1,4]diazepino[5′,6′:4,5]thieno[3,2-f]quinolin-8-one] is 0.128 µM; for `C=Cc1sncc1-c1ccc2c(ccc3sc4c(c32)NC[C@@H](C)NC4=O)n1` [Example I-229, (R)-10-methyl-3-(5-vinylisothiazol-4-yl)-9,10,11,12-tetrahydro-8H-[1,4]diazepino[5′,6′:4,5]thieno[3,2-f]quinolin-8-one] it is 0.123 µM; for `C=Cc1nn(C)cc1-c1ccc2c(ccc3sc4c(c32)NC[C@@H](C)NC4=O)n1` [Example I-230, (R)-10-methyl-3-(1-methyl-3-vinyl-1H-pyrazol-4-yl)-9,10,11,12-tetrahydro-8H-[1,4]diazepino[5′,6′:4,5]thieno[3,2-f]quinolin-8-one] it is 0.044 µM.
The figure for `C=Cc1nc(C)c(C)n1-c1ccc2c(ccc3sc4c(c32)NC[C@@H](C)NC4=O)n1` [Example I-231, (R)-3-(4,5-dimethyl-2-vinyl-1H-imidazol-1-yl)-10-methyl-9,10,11,12-tetrahydro-8H-[1,4]diazepino[5′,6′:4,5]thieno[3,2-f]quinolin-8-one] is 0.028 µM.
Regarding `C=Cc1nn(C)nc1-c1ccc2c(ccc3sc4c(c32)NC[C@@H](C)NC4=O)n1` [Example I-232, (R)-10-methyl-3-(2-methyl-5-vinyl-2H-1,2,3-triazol-4-yl)-9,10,11,12-tetrahydro-8H-[1,4]diazepino[5′,6′:4,5]thieno[3,2-f]quinolin-8-one], the concentration for half-maximal inhibition (IC50) was determined as 0.077 µM.
Turning to `C=Cc1nc(C(=O)OCC)c(-c2ccc3c(ccc4sc5c(c43)NC[C@@H](C)NC5=O)n2)s1` [Example I-234, ethyl (R)-5-(10-methyl-8-oxo-9,10,11,12-tetrahydro-8H-[1,4]diazepino[5′,6′:4,5]thieno[3,2-f]quinolin-3-yl)-2-vinylthiazole-4-carboxylate], the 50% inhibitory concentration (IC50) worked out at 0.018 µM.
The figure for `C=Cc1cc(C)nn1-c1ccc2c(ccc3sc4c(c32)NC[C@@H](C)NC4=O)n1` [Example I-236, (R)-10-methyl-3-(3-methyl-5-vinyl-1H-pyrazol-1-yl)-9,10,11,12-tetrahydro-8H-[1,4]diazepino[5′,6′:4,5]thieno[3,2-f]quinolin-8-one] is 0.157 µM.
Next, `C=Cc1cc(-c2ccc3c(ccc4sc5c(c43)NC[C@@H](C)NC5=O)n2)cc(N(C)CCOC)n1` [Example I-237, (R)-3-(2-((2-methoxyethyl)(methyl)amino)-6-vinylpyridin-4-yl)-10-methyl-9,10,11,12-tetrahydro-8H-[1,4]diazepino[5′,6′:4,5]thieno[3,2-f]quinolin-8-one]: 0.01 µM.
Next, `C=Cc1cc(-c2ccc3c(ccc4sc5c(c43)NC[C@@H](C)NC5=O)n2)cc(N2CC3(COC3)C2)n1` [Example I-238, (R)-3-(2-(2-oxa-6-azaspiro[3.3]heptan-6-yl)-6-vinylpyridin-4-yl)-10-methyl-9,10,11,12-tetrahydro-8H-[1,4]diazepino[5′,6′:4,5]thieno[3,2-f]quinolin-8-one]: 0.006 µM; `C=Cc1cc(-c2ccc3c(ccc4sc5c(c43)NC[C@@H](C)NC5=O)n2)cc(N2CCC(F)CC2)n1` [Example I-239, (R)-3-(2-(4-fluoropiperidin-1-yl)-6-vinylpyridin-4-yl)-10-methyl-9,10,11,12-tetrahydro-8H-[1,4]diazepino[5′,6′:4,5]thieno[3,2-f]quinolin-8-one]: 0.161 µM.
In the case of `C=Cc1cc(-c2ccc3c(ccc4sc5c(c43)NC[C@@H](C)NC5=O)n2)cc(N2CCC(COC)CC2)n1` [Example I-240, (R)-3-(2-(4-(methoxymethyl)piperidin-1-yl)-6-vinylpyridin-4-yl)-10-methyl-9,10,11,12-tetrahydro-8H-[1,4]diazepino[5′,6′:4,5]thieno[3,2-f]quinolin-8-one], the IC50 was found to be 0.107 µM.
The figure for `C=Cc1cc(C(F)(F)F)nn1-c1ccc2c(ccc3sc4c(c32)NC[C@@H](C)NC4=O)n1` [Example I-241, (R)-10-methyl-3-(3-(trifluoromethyl)-5-vinyl-1H-pyrazol-1-yl)-9,10,11,12-tetrahydro-8H-[1,4]diazepino[5′,6′:4,5]thieno[3,2-f]quinolin-8-one] is 1 µM; for `[2H]C([2H])([2H])C(O)c1cnc(C=C)cc1-c1ccc2c(ccc3sc4c(c32)NC[C@@H](C)NC4=O)n1` (stereo partly drawn) [Example I-243, (10R)-3-(5-(1-hydroxyethyl-2,2,2-d3)-2-vinylpyridin-4-yl)-10-methyl-9,10,11,12-tetrahydro-8H-[1,4]diazepino[5′,6′:4,5]thieno[3,2-f]quinolin-8-one] it is 0.01 µM; for `C=Cc1cc(-c2ccc3c(ccc4sc5c(c43)NC[C@@H](C)NC5=O)n2)c(OC(F)(F)F)cn1` [Example I-245, (R)-10-methyl-3-(5-(trifluoromethoxy)-2-vinylpyridin-4-yl)-9,10,11,12-tetrahydro-8H-[1,4]diazepino[5′,6′:4,5]thieno[3,2-f]quinolin-8-one] it is 0.074 µM.

In general, IC50 refers to the concentration that inhibits the measured activity by half.
